Source: US20160229835A1, “NOVEL PYRIDYLOXYACETYL TETRAHYDROISOQUINOLINE COMPOUNDS USEFUL AS NAMPT INHIBITORS” (ELI LILLY AND COMPANY, priority 2013, published 2016)
Read-outs that look alike come from different tables or passages of the source.

Experiments:
SW13 = assay: Cell Proliferation Assay ±NA, SW13; assay type: cell-based; settings: Homo sapiens, SW13, adrenal gland, treatment time 72 hr
Protocol: (§1) The purpose of this assay is to measure the ability of a compound to inhibit proliferation of endometrium, kidney, adrenal gland, and autonomic ganglia cancer cell lines dependent on the NAMPT-mediated NAD^+ formation in the presence or absence of NA (10 μM) in vitro. One day before the planned initiation of compound treatment portion of the assay, one vial of assay ready frozen cells is thawed, and the cells are grown overnight in the media as shown in Table 3 under 5% CO2 at 37° C. Then, the cell layer is briefly rinsed with 0.25% (w/v) Trypsin-0.038% (w/v) EDTA solution followed with the addition of 3.0 ml of Trypsin-EDTA solution. Once the cell layer is dispersed, 8.0 ml of complete growth medium (Table 3) is added and cells are aspirated by gently pipetting. The cell suspension is transferred to a centrifuge tube and centrifuged at 800-1000 rpm for 3-5 minutes. The supernatant is discarded using a vacuum pump. The cell pellet is suspended in a complete medium by gently pipetting. The cell numbers are counted and adjusted to the appropriate density (Table 3). […] The bottom of each plate is pasted with a white back seal and luminescence is recorded using a Flexstation 3 with the following settings: Luminescence and integration time of 500 ms.

U031 = assay: Cell Proliferation Assay ±NA, U031; assay type: cell-based; settings: U031, kidney, treatment time 72 hr
Protocol: as §1

[1] = test system: NAMPT-mediated NAD+ formation in A2780 tumors; assay: IVTI Assay (NAD+ formation in A2780 tumors); assay type: in vivo; settings: A2780 xenograft, female nude mice, oral gavage, after 2 doses (7 hours after second dose); ± SE
Protocol: The purpose of this assay is to measure the ability of a test compound to inhibit the NAMPT-mediated NAD^+ formation in tumors in an animal model. A2780 cells (ATCC) are grown as described above for the NAD^+ assay (Assay for NAD^+/NMN Levels in A2780 Cells). The cells (5×10^6/animal) are mixed with MATRIGEL® (1:1) and implanted subcutaneously into the rear flank of the mice (female nude mice, Harlan). The implanted tumor cells grow as solid tumors. The tumor volume and body weight are measured twice a week with a caliper. After tumor volume reaches approximately 300-500 mm^3, animals are randomized and grouped into positive control (described herein; 5 animals/group) and compound treatment groups (5 animals/group). The compound (formulated in 20% of CAPTISOL® and 25 mM of phosphate buffer, pH 2) and positive control (20% of CAPTISOL® and 25 mM of phosphate buffer, pH 2) are administered by oral gavage. Compound doses are in the range of 0.10 to 25 mg/kg. […] The resulting preparations (0.5 mL each) are filtered (with a 10K cutoff filter) to remove hemoglobin because red color interferes with the absorbance. […] NAD^+ quantitation is carried out using a NAD^+/NADH cycling assay kit (BioVision, cat#337-100-1). […] The percent inhibition of compound treated groups is calculated relative to the minimum inhibition groups. […]

RL95-2 = assay: Cell Proliferation Assay ±NA, RL95-2; assay type: cell-based; settings: Homo sapiens, RL95-2, endometrium, treatment time 72 hr
Protocol: as §1

A704 = assay: Cell Proliferation Assay ±NA, A704; assay type: cell-based; settings: Homo sapiens, A704, kidney, treatment time 72 hr
Protocol: as §1

TK10 = assay: Cell Proliferation Assay ±NA, TK10; assay type: cell-based; settings: Homo sapiens, TK-10, TK10, kidney, treatment time 72 hr
Protocol: as §1

[2] = NA 0.0 μM, read-out: IC50 (μM) NA (0.0 μM)
[3] = NA 10 μM, read-out: IC50 (μM) NA (10 μM)

For `CC(C)(O)CS(=O)(=O)Nc1ccc2c(c1)CCN(C(=O)COc1cccnc1)C2` [Example 1, 2-Hydroxy-2-methyl-N-[2-[2-(3-pyridyloxy)acetyl]-3,4-dihydro-1H-isoquinolin-6-yl]propane-1-sulfonamide], the IC50 (SW13; [2]) was 0.05 µM, the IC50 (SW13; [3]) was 0.02 µM and the IC50 (U031; [2]) was 0.06 µM. The IC50 (U031; [3]) was 0.06 µM, the “TED50 (dose for 50% inhibition of NAD+ formation in tumor)” value [1] was 2.56 ± 0.37 mg/kg and the IC50 (RL95-2; [2]) was 0.02 µM. For the same compound, the IC50 (RL95-2; [3]) was 0.02 µM, the IC50 (A704; [2]) was 0.37 µM and the IC50 (A704; [3]) was > 2 µM. It also gave an IC50 (TK10; [2]) of 0.22 µM and an IC50 (TK10; [3]) of 0.21 µM.
